# In patent US20220081415A1, “Amino Acid Derivatives for the Treatment of Inflammatory Diseases” (The Roskamp Institute, priority 2019, published 2022):
# Structures can show the parent of a compound that is named as a salt.
# Test system: NF-kB activation induced by TNFα
# Assay: TNFα Luciferase assay: inhibition of NF-kB activation induced by TNFα in HEK293/NF-kB luciferase cells
# Type: cell-based
# Settings: Homo sapiens, 4 h, 25 ng/ml of TNF-α for four hours, quadruplicate, read-out: IC50, concentration at which NF-kB activation was reduced by 50%
# Experimental: Determination of Inhibition of NF-kB Activation Induced by TNFα . . . In Vitro Assay
# The ability of a compound disclosed herein to inhibit NFkB activation induced by TNFα was determined using the TNFα Luciferase assay. The HEK293/NF-kB luciferase cell line was obtained by cotransfection of pNFkB-luc vector with pHyg (Panomics, CA, USA) followed by hygromycin selection. HEK293/NFkB Luciferase cells were grown in DMEM medium supplemented with 10% fetal bovine serum, 100 U/ml of penicillin, 100 ng/ml of streptomycin/Fungizone, and 100 μg/ml of hygromycin B as the selecting agent. HEK293 NFkB Luciferase cells were grown in T75 flasks (Nunc™ Cell Culture Treated EasYFlasks™) in a cell culture incubator at 37° C. and 5% CO2.
# Confluent T75 cell culture flasks (approximately 8-10 million of cells per flask) were washed with 10 ml of sterile PBS (without calcium and magnesium) under a biosafety cabinet. After aspiration of the PBS with a sterile glass pipette, the layer of cells (for each T75 flask) was covered with 1 ml of TrypLE™ Express without phenol red (Gibco) at room temperature. After one minute of incubation, HEK293 were mechanically resuspended in the TrypLE by tapping the side of the flask. The cells were then resuspended with 10 ml of pre-warmed complete culture medium and transferred to a conical tube. Cells were centrifuged for 5 minutes at 4000 rpm (1000 g) at room temperature. The cellular pellet was resuspended with 24 ml of pre-warmed cell culture media and […] of cell suspension (approximately 80,000 cells per well) was plated per well in 96-well cell culture plates (Costar #3599, Corning, N.Y., USA) using a multichannel pipette and reversed pipetting to prevent air bubble formation. After plating, the cells were maintained overnight in the cell culture incubator before being treated. For each 96 well cell culture plate, 8 wells were used as “control wells” (only culture medium added) and to 8 wells only TNFα was added. The NF-kB Luciferase reporter cell line was challenged with 25 ng/ml of TNF-α for four hours in the presence and absence (control conditions) of a dose range of the different compounds to be tested. For each compound, a dose range of concentrations was tested in quadruplicate and used to determine an IC50.
# Luciferase activity was monitored using the Luc-Screen® Extended-Glow Luciferase Reporter Gene Assay System by chemoluminescence according to the instruction of the manufacturer (Invitrogen) and a BioTek Synergy HT plate reader (BioTek Instruments, VT, USA).
row,Compound,IC50
1,"COc1cccc(C(=O)N[C@@H](Cc2ccccc2)C(=O)N2CC=CCC2c2cccnc2)c1 (stereo partly drawn) [Compound 35, 3-methoxy-N-((2S)-1-oxo-3-phenyl-1-(6-(pyridin-3-yl)-5,6-dihydropyridin-1(2H)-yl)propan-2-yl)benzamide]",1600 nM
2,"O=C(N[C@@H](Cc1ccccc1)C(=O)N1CC=CCC1c1cccnc1)c1ccco1 (stereo partly drawn) [Compound 52, N-((2S)-1-oxo-3-phenyl-1-(6-(pyridin-3-yl)-5,6-dihydropyridin-1(2H)-yl)propan-2-yl)furan-2-carboxamide]",134 nM
3,"COc1cc(C(=O)N[C@@H](Cc2ccccc2)C(=O)N2CC=CCC2c2cccnc2)ccc1F (stereo partly drawn) [Compound 34, 4-fluoro-3-methoxy-N-((2S)-1-oxo-3-phenyl-1-(6-(pyridin-3-yl)-5,6-dihydropyridin-1(2H)-yl)propan-2-yl)benzamide]",2500 nM
4,"O=C(NC(Cc1ccccc1)C(=O)N1CC=CCC1c1cccnc1)c1cccc(Cl)c1 (stereo not drawn) [Compound 18, 3-chloro-N-(1-oxo-3-phenyl-1-(6-(pyridin-3-yl)-5,6-dihydropyridin-1(2H)-yl)propan-2-yl)benzamide]",7000 nM
5,"COc1cccc(C(=O)N[C@@H](C)C(=O)N2CC=CCC2c2cccnc2)c1 (stereo partly drawn) [Compound 10, 3-methoxy-N-((2S)-1-oxo-1-(6-(pyridin-3-yl)-5,6-dihydropyridin-1(2H)-yl)propan-2-yl)benzamide]",125000 nM
6,"CCOc1cccc(C(=O)NC(Cc2ccccc2)C(=O)N2CC=CCC2c2cccnc2)c1 (stereo not drawn) [Compound 20, 3-ethoxy-N-(1-oxo-3-phenyl-1-(6-(pyridin-3-yl)-5,6-dihydropyridin-1(2H)-yl)propan-2-yl)benzamide]",1500 nM
7,"CCOc1ccc(C(=O)N[C@@H](C)C(=O)N2CC=CCC2c2cccnc2)cc1OCC (stereo partly drawn) [Compound 11, 3,4-diethoxy-N-((2S)-1-oxo-1-(6-(pyridin-3-yl)-5,6-dihydropyridin-1(2H)-yl)propan-2-yl)benzamide]",250000 nM
8,"COc1cc(OC)cc(C(=O)N[C@H](Cc2ccccc2)C(=O)N2CC=CCC2c2cccnc2)c1 (stereo partly drawn) [Compound 28, 3,5-dimethoxy-N-((2R)-1-oxo-3-phenyl-1-(6-(pyridin-3-yl)-5,6-dihydropyridin-1(2H)-yl)propan-2-yl)benzamide]",6500 nM
9,"CC(C)[C@@H](C(=O)N1CC=CC[C@@H]1c1cccnc1)N1C(=O)c2ccccc2C1=O (single isomer, unassigned) [Compound 4]",550000 nM
10,"NCC(=O)Nc1cccc(C(=O)N[C@@H](Cc2ccccc2)C(=O)N2CC=CCC2c2cccnc2)c1 (stereo partly drawn) [Compound 53, 3-(2-aminoacetamido)-N-((2S)-1-oxo-3-phenyl-1-(6-(pyridin-3-yl)-5,6-dihydropyridin-1(2H)-yl)propan-2-yl)benzamide hydrochloride]",212 nM
11,"CC[C@H](C)C(=O)Nc1cccc(C(=O)N[C@@H](Cc2ccccc2)C(=O)N2CC=CCC2c2cccnc2)c1 (stereo partly drawn) [Compound 57, 3-((S)-2-methylbutanamido)-N-((2S)-1-oxo-3-phenyl-1-(6-(pyridin-3-yl)-5,6-dihydropyridin-1(2H)-yl)propan-2-yl)benzamide]",121 nM
12,"CCCC(=O)Nc1cccc(C(=O)N[C@@H](Cc2ccc3ccccc3c2)C(=O)N2CC=CCC2c2cccnc2)c1 (stereo partly drawn) [Compound 65, 3-butyramido-N-((2S)-3-(naphthalen-2-yl)-1-oxo-1-(6-(pyridin-3-yl)-5,6-dihydropyridin-1(2H)-yl)propan-2-yl)benzamide]",704 nM
